Data reported in patent US10351548B2, “2-oxo-1,2-dihydropyridine-3-carboxamide compounds and their use as inhibitors of PDK1” (INTERNATIONAL SOCIETY FOR DRUG DEVELOPMENT S.R.L., priority 2015, dated 2019).
Read-outs that look alike come from different tables or passages of the source.

Experiments:
Type in all cases: cell-based, human
[1] = system: AKT phosphorylation at Thr308 in GSCs; test: PDK1 activity in GSCs, (T308)AKT phosphorylation ELISA
Description: (§1) U87MG cells were cultured in 96-well microplates (5.000 cells/well), and treated for different times with 10 μM SA16, SA23 or IB35. At the end of the treatment period, the GSCs were centrifuged at 500×g for 3 minutes; cells were washed twice using fresh saline, and rapidly fixed with 4% (for adherent U87MG cells) or 8% (for suspension GSCs) formaldehyde to preserve activation of specific protein modification. The activity of PDK1 was assessed measuring the levels of phosphorylated AKT on Thr308, using a specific primary antibodies. The subsequent incubation with a secondary HRP-conjugated antibody and the developing solution allowed the colorimetric quantification of the levels of phosphorylated protein. The relative number of cells in each well was then determined using the Crystal-Violet assay. The results were calculated by subtracting the mean background value from the values obtained under each test condition: values were normalised to the number of cells in each well and were expressed as the percentages of the control (untreated cells) values.
The effects of the new compounds on PDK1 activity were investigated by ELISA assays also in GSCs. U87MG-derived CSCs were treated for the indicated times (0-120 min) with NSC medium containing DMSO (control), or 10 μM IIB35, SA23 or SA16. At the end of the treatment periods, the levels of AKT phosphorylation on Thr308 were evaluated using an ELISA assay, as above described. The data were expressed as the percentage of phosphorylated AKT relative to those of untreated cells (control), which were set at 100%, and were the mean values±SEM of three independent experiments performed in triplicate. The data are represented in FIG. 12. The significance of differences was performed using one-way ANOVA with Bonferroni post-test (* p<0.05, ** p<0.01, *** p<0.001 vs. control).

U87MG cells [2] = test: U87MG cell proliferation, MTS assay; conditions: Homo sapiens, U-87 MG, 72 h, MTS assay
Description: (§2) The U87MG cell line was obtained from the National Institute for Cancer Research of Genoa (Italy) and cultured in DMEM 10% FBS and 2 mM glutamine. To isolate GSCs, approximately 2.0×10^6 cells were suspended in 1 mL of a defined serum-free Neural Stem Cell (NSC) medium (Daniele, S., et al., Modulation of A1 and A2B adenosine receptor activity: a new strategy to sensitise glioblastoma stem cells to chemotherapy. Cell death & disease, 2014. 5(11): p. e1539). After 3-4 days of culture, the neurospheres were collected, suspended in NSC medium, dissociated into single cells, and plated for the assays. For the long-term treatment of cells, NSC or complete medium containing drugs was replaced every two to three days.
(§3) The human U87MG cells or GSCs were seeded at a density of 3×10^3 cells/well. After 24 h, the cells were treated from one to seven days with fresh growth medium containing different concentrations of SA16, SA23 or IB35. Following the treatment period, cell proliferation was determined using the MTS assay according to manufacturer's instruction. The absorbance of formazan at […] was measured in a colorimetric assay with an automated plate reader (Victor Wallac 2, Perkin Elmer). The results were calculated by subtracting the mean background from the values obtained from each evaluation and were expressed as the percentage of the control (untreated cells). Sigmoid dose-response curve was generated, from which the IC50 values were derived.
As representative GBM cell line, the above U87MG cells were used; this human cell line resulted an appropriate model to study the effects of PDK1 inhibition, because it is deficient for the tumour suppressor phosphatase and tensin homologue (PTEN), a negative regulator of the PI3K/AKT pathway (Wang, S. I., et al., Somatic mutations of PTEN in glioblastoma multiforme. Cancer research, 1997. 57(19): p. 4183-4186). To examine the effects of SA16, SA23 and IB35 on GBM cell growth/survival, U87MG cells were incubated with different concentrations of the new compounds (1 nM-10 μM) for 24 and 72 h. Specifically, U87MG cells were treated in complete medium with different concentrations of SA16, SA23 or IB35 (1 nM-10 μM) for 24 h (A) or 72 h (B). At the end of treatment, cell proliferation was measured using the MTS assay. The data are expressed as a percentage with respect to that of untreated cells (control), which was set to 100%, and are the mean values±SEM of three independent experiments, each performed in duplicate. The significance of the differences reported in FIGS. 1 and 2 was determined with a one-way ANOVA with Bonferroni post-test (* p<0.05, **p<0.01, *** p<0.001 vs. control cells).

U87MG cells [3] = test: Annexin V and 7-AAD staining in U87MG cells (apoptosis); conditions: 10 μM, 72 h
Description: Dual staining with Annexin V coniugated to fluorescein-isothiocyanate (FITC) and 7-amino-actinomysin (7-AAD) was performed using the commercially available kit (Muse Annexin V and Dead Cell Kit; Merck KGaA, Darmstadt, Germany). U87MG cells or GSCs were treated with DMSO (control), SA16, SA23 or IB35 for 72 h or seven days, respectively. At the end of the treatment periods, the percentages of living, apoptotic and dead cells were acquired and analysed by Muse™ Cell Analyzer as previously described (Daniele, S., et al., Combined inhibition of AKT/mTOR and MDM2 enhances Glioblastoma Multiforme cell apoptosis and differentiation of cancer stem cells. Sci. Rep., 2015. 5.).
It was then investigated whether the reduction in cell proliferation elicited by the PDK1 inhibitors could be associated with apoptosis. U87MG cells were treated for 72 h with DMSO (control), or 10 μM SA16, SA23 or IB35. At the end of the treatment period, the cells were collected, and the level of phosphatidylserine externalisation was evaluated using the Annexin V-staining protocol, as described above (FIG. 3). In FIG. 4 the data are expressed as the percentage of apoptotic cells (the data for the early-stage apoptotic cells shown in white, and the data for the late-stage apoptotic/necrotic cells shown in grey) versus the total number of cells. The data shown represented the mean±SEM of three different experiments. The significance of the differences was determined with a one-way ANOVA with Bonferroni post-test (*** p<0.001 vs. control).

[4] = system: AKT phosphorylation at Thr308 in U87MG cells; test: PDK1 activity in U87MG cells, (T308)AKT phosphorylation ELISA
Description: as §1
280(4): p. 1107-1115). […] At the end of the treatment periods, the levels of (T308)AKT phosphorylation was evaluated using an ELISA kit, as described above. The data reported in FIG. 5 were expressed as the percentage of phosphorylated (T308)AKT relative to those of untreated cells (control), which were set at 100%, and were the mean values±SEM of three independent experiments performed in triplicate.

[5] = system: GSCs isolated from U87MG cells; test: GSC proliferation, MTS assay; conditions: Homo sapiens, U-87 MG, 168 h; seven days of treatment, MTS assay
Description: as §2, §3
The inhibition of PDK1 has been reported as potentially effective therapeutic approach to reduce self-renewal and propagation of GSCs (Signore, M., et al., Combined PDK1 and CHK1 inhibition is required to kill glioblastoma stem-like cells in vitro and in vivo. Cell death & disease, 2014. 5(5): p. e1223). On this basis, the effects of SA16, SA23 and IB35 on GSCs, isolated from U87MG cells as previously reported, were evaluated (Daniele, S., et al., Modulation of A1 and A28 adenosine receptor activity: a new strategy to sensitise glioblastoma stem cells to chemotherapy. Cell death & disease, 2014. 5(11): p. e1539). U87MG-derived GSCs were incubated with the indicated concentrations of IB35, SA23 or SA16 for four days (FIG. 8) or seven days (FIG. 9). At the end of the treatment periods, cell proliferation was measured using the MTS assay. The data were expressed as a percentage with respect to that of untreated cells (control), which was set to 100%, and are the mean values±SEM of three independent experiments, each performed in duplicate. IC50 values after seven days of treatment were calculated from sigmoid dose-response curve (FIG. 9). The significance of the differences was determined with a one-way ANOVA with Bonferroni post-test (** p<0.01, *** p<0.001 vs. control).

IC50 (U87MG cells [2]; read-out: IC50 U87MG): 2.05 ± 0.19 µM
IC50 (U87MG cells [2]; read-out: IC50 U87MG cell proliferation): 2.05 ± 0.19 µM
IC50 [5]: 5.47 ± 0.1 nM
SMILES: O=C1Nc2ccc(NC(=O)[C@H](NC(=O)c3cccn(Cc4ccc(F)c(F)c4)c3=O)c3ccccc3)cc2/C1=C/c1cnc[nH]1 [SA16, (Z)—(R)—N-(2-((3-((1H-imidazol-5-yl)methylene)-2-oxoindolin-5-yl)amino)-2-oxo-1-phenylethyl)-1-(3,4-difluorobenzyl)-2-oxo-1,2-dihydropyridine-3-carboxamide]
inhibition of AKT phosphorylation at Thr308 ([1]; 10 μM, 0-120 min): biphasic kinetic
inhibition at 10 µM ([1]; Homo sapiens, read-out: peak of inhibition (percentage of PDK1 inhibition)): 74.8 ± 3%
phosphatidylserine externalization (early and late apoptosis/death) (U87MG cells [3]): significant phosphatidylserine externalization
inhibition at 10 µM ([4]; Homo sapiens, U-87 MG, U87MG cells, read-out: peak of inhibition (percentage of PDK1 inhibition)): 33.3 ± 4.5%
inhibition of AKT phosphorylation at Thr308 ([4]; U87MG, 10 μM, 0-120 min): biphasic kinetic
